Experimental data reported in patent publication US20230339877A1, “Synthesis and Composition of Neurolenin D Mesylate and Related Compounds - New Drugs for the Treatment of Parasitic Nematode Infections in Humans, Animals and Plants” (Smith College, priority 2022, published 2023).
Where a name gives a salt, the structure may show the parent alone.

How the values were obtained:
[1] = test system: adult female Brugia pahangi parasites (BP AF); experiment: Killing of adult female Brugia pahangi parasites (BP AF) in culture; format: cell-based
Procedure: (§1) The drug was applied at 1, 2 and 3 parts per million (ppm) and was 100% effective at killing the parasites at all three concentrations. Even at 1 ppm, all parasites were killed within 90 hours after treatment. The control treatment is with 1, 2 and 3 ppm ethanol given to the parasites in culture under the same conditions. One adult female parasite treated with 1 ppm ethanol died at about 80 hours. This death is not experimentally significant as occasionally a parasite dies in culture without any drug treatment.

[2] = test system: adult male Brugia pahangi parasites (BP AM); experiment: Killing of adult male Brugia pahangi parasites (BP AM) in culture; format: cell-based
Procedure: as §1, with “120” for “90”, “male” for “female”, “40” for “80”

microfilariae (larvae) = experiment: Killing of microfilariae (larvae) produced following mating of adult parasites; format: cell-based, Brugia pahangi; conditions: repeated experiments
Source text: 100% of all adult male and female parasites are always killed upon treatment with NDM.

[3] = Biological activity assays for toxicity and mutagenicity; conditions: preliminary data
[4] = repeated in many separate trials

Structure (SMILES): C=C1C(=O)O[C@@H]2C[C@H](C)/C=C\C(=O)[C@](C)(O)[C@@H](OS(C)(=O)=O)[C@@H](OC(=O)CC(C)C)[C@@H]12 [NDM, Neurolenin D Mesylate]
- time after treatment by which all parasites were killed ([1]; adult female BP in culture, 1 ppm): ≤ 90 h
- effective at killing the parasites ([1]; adult female BP in culture, drug applied at 1, 2 and 3 ppm, all three concentrations, FIG. 1): 100%
- speed of killing compared with other neurolenin derivatives ([1]; adult female BP, FIG. 1, at the endpoint 100% of worms killed): more slowly
- adult female parasites killed upon treatment [1, 4]: 100%
- time after treatment by which all parasites were killed ([2]; adult male BP in culture, 1 ppm): ≤ 120 h
- effective at killing the parasites ([2]; adult male BP in culture, drug applied at 1, 2 and 3 ppm, all three concentrations, FIG. 2): 100%
- speed of killing compared with other neurolenin derivatives ([2]; adult male BP, FIG. 2, at the endpoint 100% of worms killed): more slowly
- adult male parasites killed upon treatment [2, 4]: 100%
- microfilariae (larvae) killed (microfilariae (larvae)): 100%
- mutagenicity [3]: not toxic or mutagenic
- toxicity [3]: not toxic
